Measured values: patent publication US6914045B2, “Glycopeptide antibiotics” (Wyeth Holdings Corporation, priority 2001, dated 2005)
In brackets after ≈: the same amount, converted by molar mass.

How the values were obtained:
[1] = system: Staphylococcus aureus-SMITH (GC 4543); assay: acute lethal infection in mice; type: in vivo; settings: acute lethal infection, female CD-1 mice, intraperitoneal challenge, intravenous 30 min. after infection, 7 day survival
How it was run: (§1)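 Mice (female CD-1, 20+/−2 gm) receive bacteria ip in broth or hog gastric mucin, then test agent iv after 30 min. Median effective dose is calculated from 7 day survival pooled across 3 tests.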

[2] = system: Enterococcus faecalis (GC 2246); assay: acute lethal infection in mice; type: in vivo; settings: female CD-1 mice, intraperitoneal challenge, intravenous 30 min. after infection, 7 day survival
How it was run: as §1

Escherichia coli = assay: in vitro antibacterial evaluation, MIC by broth dilution; type: cell-based; settings: 18 hours at 35° C.
How it was run: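 Broth dilution in Muller-Hinton II medium per NCCLS standard M7-A2, with an inoculum of 5×10^5 CFU/mL and antibiotic tested over 64-0.06 μg/mL. MIC was taken as the lowest concentration inhibiting visible growth.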

Staphylococcus sp. = assay: as above; type: cell-based; settings: broth dilution, 18 hours at 35° C.
How it was run: (§2)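 Inoculum 5×10^5 CFU/mL; concentrations 64 to 0.06 μg/mL; MIC defined as lowest inhibitory level. Conducted by broth dilution under NCCLS guidelines.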

Enterococcus sp. = assay: as above; type: cell-based; settings: broth dilution, 18 hours at 35° C.
How it was run: as §2

Streptococcus sp. = assay: as above; type: cell-based; settings: broth dilution, 18 hours at 35° C.
How it was run: as §2

Compound: CC(c1ccccc1)C1NC(=O)CNC(=O)C(CO)NC(=O)C(C(O)C2CNC(=N)N2C2OC(CO)C(O)C(O)C2O)NC(=O)C(C(O)C2CNC(=N)N2)NC(=O)C(Cc2ccc(OC3OC(CO)C(OC4OC(COC(=O)C(c5ccccc5)c5ccccc5)C(O)C(O)C4O)C(O)C3O)cc2)NC1=O (stereo not drawn) [Example 96c, Cyclo[glycyl-β-methylphenylalanyl-O-[4-O-[6-O-(diphenylacetyl)hexolpyranosyl]hexopyranosyl]tyrosyl-3-(2-iminoimidazolidin-4-yl)seryl-3-(3-hexopyranosyl-2-iminoimidazolidin-4-yl)serylseryl]]
- median effective dose (ED50), Staphylococcus aureus-SMITH (GC 4543) [1]: 0.29 mg/kg
- median effective dose (ED50), Enterococcus faecalis (GC 2246) [2]: 5.2 mg/kg
- MIC Escherichia coli (ATCC 25922) (Escherichia coli): 64 µg/mL (≈ 43 µM)
- MIC Coagulase Negative Staphylococcus (GC 4547) (Staphylococcus sp.): 1 µg/mL (≈ 0.671 µM)
- MIC Coagulase Negative Staphylococcus (GC 4548) (Staphylococcus sp.): 0.25 µg/mL (≈ 0.168 µM)
- MIC Coagulase Negative Staphylococcus (GC 4549) (Staphylococcus sp.): 1 µg/mL (≈ 0.671 µM)
- MIC Coagulase Negative Staphylococcus (GC 4551) (Staphylococcus sp.): 1 µg/mL (≈ 0.671 µM)
- MIC Coagulase Negative Staphylococcus (ID-3941) (Staphylococcus sp.): 0.5 µg/mL (≈ 0.336 µM)
- MIC Staphylococcus aureus-SMITH (GC 4543) (Staphylococcus sp.): 0.5 µg/mL (≈ 0.336 µM)
- MIC Staphylococcus haemolyticus (GC 4546) (Staphylococcus sp.): 0.5 µg/mL (≈ 0.336 µM)
- MIC Staphylococcus aureus (ATCC 29213) (Staphylococcus sp.; strain ATCC 29213): 1 µg/mL (≈ 0.671 µM)
- MIC Staphylococcus aureus (GC 1131) (Staphylococcus sp.; strain GC 1131): 0.5 µg/mL (≈ 0.336 µM)
- MIC Staphylococcus aureus (GC 4541) (Staphylococcus sp.; strain GC 4541): 0.5 µg/mL (≈ 0.336 µM)
- MIC Staphylococcus aureus (GC 4542) (Staphylococcus sp.; strain GC 4542): 1 µg/mL (≈ 0.671 µM)
- MIC Staphylococcus aureus-SMITH (GC 4543) (Staphylococcus sp.; strain GC 4543): 0.5 µg/mL (≈ 0.336 µM)
- MIC Staphylococcus aureus (GC 4544) (Staphylococcus sp.; strain GC 4544): 1 µg/mL (≈ 0.671 µM)
- MIC Staphylococcus aureus (GC 4545) (Staphylococcus sp.; strain GC 4545): 0.5 µg/mL (≈ 0.336 µM)
- MIC Staphylococcus haemolyticus (GC 4546) (Staphylococcus sp.; strain GC 4546): 0.5 µg/mL (≈ 0.336 µM)
- MIC Coagulase Negative Staphylococcus (GC 4547) (Staphylococcus sp.; strain GC 4547): 1 µg/mL (≈ 0.671 µM)
- MIC Coagulase Negative Staphylococcus (GC 4548) (Staphylococcus sp.; strain GC 4548): 0.25 µg/mL (≈ 0.168 µM)
- MIC Coagulase Negative Staphylococcus (GC 4549) (Staphylococcus sp.; strain GC 4549): 1 µg/mL (≈ 0.671 µM)
- MIC Coagulase Negative Staphylococcus (GC 4551) (Staphylococcus sp.; strain GC 4551): 1 µg/mL (≈ 0.671 µM)
- MIC Coagulase Negative Staphylococcus (ID-3941) (Staphylococcus sp.; strain ID-3941): 0.5 µg/mL (≈ 0.336 µM)
- MIC Enterococcus avium (GC 4558) (Enterococcus sp.; Enterococcus avium (GC 4558)): 2 µg/mL (≈ 1.34 µM)
- MIC Enterococcus faecalis (ATCC 29212) (Enterococcus sp.; Enterococcus faecalis (ATCC 29212)): 2 µg/mL (≈ 1.34 µM)
- MIC Enterococcus faecalis (GC 4552) (Enterococcus sp.; Enterococcus faecalis (GC 4552)): 2 µg/mL (≈ 1.34 µM)
- MIC Enterococcus faecalis (GC 4553) (Enterococcus sp.; Enterococcus faecalis (GC 4553)): 2 µg/mL (≈ 1.34 µM)
- MIC Enterococcus faecalis (GC 4554) (Enterococcus sp.; Enterococcus faecalis (GC 4554)): 2 µg/mL (≈ 1.34 µM)
- MIC Enterococcus faecium (GC 2243) (Enterococcus sp.; Enterococcus faecium (GC 2243)): 2 µg/mL (≈ 1.34 µM)
- MIC Enterococcus faecium (GC 4556) (Enterococcus sp.; Enterococcus faecium (GC 4556)): 2 µg/mL (≈ 1.34 µM)
- MIC Enterococcus faecium (GC 4557) (Enterococcus sp.; Enterococcus faecium (GC 4557)): 1 µg/mL (≈ 0.671 µM)
- MIC Enterococcus avium (GC 4558) (Enterococcus sp.): 2 µg/mL (≈ 1.34 µM)
- MIC Enterococcus faecalis (ATCC 29212) (Enterococcus sp.): 2 µg/mL (≈ 1.34 µM)
- MIC Enterococcus faecalis (GC 2242) (Enterococcus sp.): 1 µg/mL (≈ 0.671 µM)
- MIC Enterococcus faecalis (GC 4552) (Enterococcus sp.): 2 µg/mL (≈ 1.34 µM)
- MIC Enterococcus faecalis (GC 4553) (Enterococcus sp.): 2 µg/mL (≈ 1.34 µM)
- MIC Enterococcus faecalis (GC 4554) (Enterococcus sp.): 2 µg/mL (≈ 1.34 µM)
- MIC Enterococcus faecium (GC 2243) (Enterococcus sp.): 2 µg/mL (≈ 1.34 µM)
- MIC Enterococcus faecium (GC 4556) (Enterococcus sp.): 2 µg/mL (≈ 1.34 µM)
- MIC Enterococcus faecium (GC 4557) (Enterococcus sp.): 1 µg/mL (≈ 0.671 µM)
- MIC Enterococcus faecalis (GC 2242) (Enterococcus sp.; strain GC 2242): 1 µg/mL (≈ 0.671 µM)
- MIC Streptococcus agalactiae (GC 4564) (Streptococcus sp.): <0.06 µg/mL
- MIC Streptococcus pneumoniae (GC 4565) (Streptococcus sp.): <0.06 µg/mL
- MIC Streptococcus pyogenes (ID-3187) (Streptococcus sp.): <0.06 µg/mL
- MIC Streptococcus agalactiae (GC 4564) (Streptococcus sp.; strain GC 4564): <0.06 µg/mL
- MIC Streptococcus pneumoniae (GC 4565) (Streptococcus sp.; strain GC 4565): <0.06 µg/mL
- MIC Streptococcus pyogenes (ID-3187) (Streptococcus sp.; strain ID-3187): <0.06 µg/mL
